Assay results taken from publication PMC6733653 (Insect biochemistry and molecular biology, 2019).
Structures can show the parent of a compound that is named as a salt.

Tests used:
Assay in all cases: two-electrode voltage clamp, Xenopus oocytes, concentration-response
Format in all cases: cell-based
CquiOR5 = target: T1, CquiOR5 (Culex quinquefasciatus, UniProt A0A3G1T0A9)
T1 sequence (A0A3G1T0A9 1-393): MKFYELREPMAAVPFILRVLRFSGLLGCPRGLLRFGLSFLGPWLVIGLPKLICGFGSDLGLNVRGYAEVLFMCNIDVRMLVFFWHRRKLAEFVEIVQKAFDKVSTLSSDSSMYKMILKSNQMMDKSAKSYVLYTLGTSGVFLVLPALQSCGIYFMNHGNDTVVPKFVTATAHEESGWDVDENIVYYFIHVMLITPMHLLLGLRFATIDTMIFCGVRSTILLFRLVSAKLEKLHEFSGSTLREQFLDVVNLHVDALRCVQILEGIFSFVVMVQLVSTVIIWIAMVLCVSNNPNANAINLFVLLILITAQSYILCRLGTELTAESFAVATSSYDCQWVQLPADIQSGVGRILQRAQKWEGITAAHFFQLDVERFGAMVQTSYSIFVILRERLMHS

CquiOR4 [1] = target: T2, CquiOR4 (Culex quinquefasciatus, UniProt A0A3G1T0B0)
T2 sequence (A0A3G1T0B0 1-391): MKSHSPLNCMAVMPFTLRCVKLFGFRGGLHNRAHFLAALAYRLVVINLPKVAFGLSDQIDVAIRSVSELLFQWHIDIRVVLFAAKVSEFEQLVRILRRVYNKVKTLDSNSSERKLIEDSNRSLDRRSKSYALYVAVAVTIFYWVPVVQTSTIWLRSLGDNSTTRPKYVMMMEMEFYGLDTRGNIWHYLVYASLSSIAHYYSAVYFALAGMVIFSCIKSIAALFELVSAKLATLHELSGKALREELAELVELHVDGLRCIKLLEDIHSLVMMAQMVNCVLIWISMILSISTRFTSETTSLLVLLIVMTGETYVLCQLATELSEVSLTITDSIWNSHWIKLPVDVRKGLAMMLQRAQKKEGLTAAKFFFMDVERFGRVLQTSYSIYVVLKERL

AaegOR15 = target: T3, AaegOR15 (Aedes aegypti, UniProt A0A6B9QIR2)
T3 sequence (A0A6B9QIR2 1-390): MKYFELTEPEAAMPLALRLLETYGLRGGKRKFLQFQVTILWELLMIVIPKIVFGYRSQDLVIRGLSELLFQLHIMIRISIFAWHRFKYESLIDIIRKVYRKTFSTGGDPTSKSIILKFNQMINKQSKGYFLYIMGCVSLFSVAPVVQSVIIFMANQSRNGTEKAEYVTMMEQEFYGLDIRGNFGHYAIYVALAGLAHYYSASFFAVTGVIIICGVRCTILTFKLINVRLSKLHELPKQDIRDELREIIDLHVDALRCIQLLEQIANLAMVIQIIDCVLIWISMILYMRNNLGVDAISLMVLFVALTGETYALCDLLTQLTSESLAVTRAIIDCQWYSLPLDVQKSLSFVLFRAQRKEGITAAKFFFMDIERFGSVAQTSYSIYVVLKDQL
T3 sequence (Q178U6 1-478 partner): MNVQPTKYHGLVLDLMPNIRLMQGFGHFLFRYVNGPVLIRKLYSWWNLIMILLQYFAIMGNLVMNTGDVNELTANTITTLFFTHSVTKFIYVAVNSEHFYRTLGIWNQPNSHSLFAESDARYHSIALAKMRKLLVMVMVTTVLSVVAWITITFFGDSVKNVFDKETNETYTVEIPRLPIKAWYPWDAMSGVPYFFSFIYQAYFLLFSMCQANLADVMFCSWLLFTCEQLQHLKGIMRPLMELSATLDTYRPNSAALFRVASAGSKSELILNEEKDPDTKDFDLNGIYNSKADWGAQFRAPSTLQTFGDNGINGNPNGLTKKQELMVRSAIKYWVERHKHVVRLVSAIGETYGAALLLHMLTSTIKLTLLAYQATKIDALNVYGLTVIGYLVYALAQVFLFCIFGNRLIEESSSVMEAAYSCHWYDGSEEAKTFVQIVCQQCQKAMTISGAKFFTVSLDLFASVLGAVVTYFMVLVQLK

CquiOR4 [2] = target: T2, CquiOR4; remark: listed apart in the source

Compound | two-electrode voltage clamp, Xenopus oocytes, concentration-response (AaegOR15) | also measured
C=CC(C)(O)CCC=C(C)C (racemic) [linalool] | – | EC50 (CquiOR5): 0.574 µM
OCCc1ccccc1 [2-phenylethanol] | – | EC50 (CquiOR4 [1]): 0.028 µM
CC(=O)c1ccccc1 [acetophenone] | AaegOR15/AaegOrco-expressing oocytes generated dose-dependent, robust currents when challenged with phenethyl propionate, phenethyl formate, and acetophenone | –
OCc1ccccc1 [benzyl alcohol] | Concentration-dependent responses of AaegOR15·AaegOrco-expressing oocytes to four major odorants | –
O=COCCc1ccccc1 [phenethyl formate] | AaegOR15/AaegOrco-expressing oocytes generated dose-dependent, robust currents when challenged with phenethyl propionate, phenethyl formate, and acetophenone | –
CCC(=O)OCCc1ccccc1 [phenethyl propionate] | AaegOR15/AaegOrco-expressing oocytes generated dose-dependent, robust currents when challenged with phenethyl propionate, phenethyl formate, and acetophenone | two-electrode voltage clamp, Xenopus oocytes, concentration-response (CquiOR4 [2]): 2-Phenylethanol, phenethyl formate, and phenethyl propionate were the best ligands for CquiOR4
